IC50 and viability, T/C data for two molecules are collected here from PubChem BioAssay AID2060891 (Molecular Pharmacology Branch, DTP, NCI, 2025).

pIC50: −log10 of the molar value. A value given as a limit tells only on which side of the number the result lay.

This assay concerns K98450-129-R-PDC complex spheroid growth, percent test/control. The experiment in a line: Anticancer human tumor K98450-129-R-PDC patient-derived colon adenocarcinoma cell line growth inhibition [RAS]. The settings on record: for pIC50: curve of first compound; for viability, T/C: stronger effect = lower value. In a few lines: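 Multi-cell-type spheroids: tumor cells plus HUVEC endothelial cells and mesenchymal stem cells. RAS-pathway inhibitors were combined with targeted agents, each dosed in half-log steps down from clinical Cmax, or from 10 microM when Cmax was unknown.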
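Further: spheroids exposed to agents for seven days before the viability readout.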
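Wherever viability, T/C is given: luminescence used as a proxy for viable cell amount.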

As usually defined, the pIC50 is −log10 of the IC50, conventionally taken in molar units. For orientation: viability, T/C means the ratio of treated to control. As to `NC1c2ccccc2OC12CCN(c1cnc3c(N4CCCc5ncccc54)n[nH]c3n1)CC2` (configuration not stated) + C=CC(=O)N1CCN(c2nc(OCC3CCCN3C)nc3c(F)c(-c4nc(N)cc(C)c4C(F)(F)F)c(Cl)cc23)C(C)C1, the pIC50 reads like this: (second compound 0.00316 µM) 7.23; (second compound 0.01 µM) greater than 7.50; (second compound 0.0316 µM) greater than 7.50; (second compound 0.1 µM) greater than 7.50; (second compound 0.316 µM) greater than 7.50; (second compound 1 µM) greater than 7.50. Besides, the viability, T/C is 71.8% (second compound 0.00316 µM, first compound 0.0316 µM); 31.1% (second compound 0.00316 µM, first compound 0.1 µM); 8.4% (second compound 0.00316 µM, first compound 0.316 µM); 7.7% (second compound 0.00316 µM, first compound 1 µM); 6.2% (second compound 0.00316 µM, first compound 3.16 µM); 4.82% (second compound 0.00316 µM, first compound 10 µM). The viability, T/C (second compound 0.01 µM, first compound 0.0316 µM) was 48.1%; the viability, T/C (second compound 0.01 µM, first compound 0.1 µM) was 13%; the viability, T/C (second compound 0.01 µM, first compound 0.316 µM) was 7.99%; the viability, T/C (second compound 0.01 µM, first compound 1 µM) was 7.31%; the viability, T/C (second compound 0.01 µM, first compound 3.16 µM) was 6.81%; the viability, T/C (second compound 0.01 µM, first compound 10 µM) is 4.84%. The viability, T/C reads like this: (second compound 0.0316 µM, first compound 0.0316 µM) 16.9%; (second compound 0.0316 µM, first compound 0.1 µM) 10.2%; (second compound 0.0316 µM, first compound 0.316 µM) 8.19%; (second compound 0.0316 µM, first compound 1 µM) 7.23%; (second compound 0.0316 µM, first compound 3.16 µM) 5.99%; (second compound 0.0316 µM, first compound 10 µM) 4.9%. Moreover, the viability, T/C (second compound 0.1 µM, first compound 0.0316 µM) is 12.3%; the viability, T/C (second compound 0.1 µM, first compound 0.1 µM) is 8.86%; the viability, T/C (second compound 0.1 µM, first compound 0.316 µM) is 8.05%; the viability, T/C (second compound 0.1 µM, first compound 1 µM) is 6.93%; the viability, T/C (second compound 0.1 µM, first compound 3.16 µM) is 6.33%; the viability, T/C (second compound 0.1 µM, first compound 10 µM) was 4.82%. Moreover, the viability, T/C runs as follows: (second compound 0.316 µM, first compound 0.0316 µM) 10.9%; (second compound 0.316 µM, first compound 0.1 µM) 8.75%; (second compound 0.316 µM, first compound 0.316 µM) 8.02%; (second compound 0.316 µM, first compound 1 µM) 6.49%; (second compound 0.316 µM, first compound 3.16 µM) 6.35%; (second compound 0.316 µM, first compound 10 µM) 5.02%. For the same molecule, the viability, T/C was 10.8% (second compound 1 µM, first compound 0.0316 µM); 9.4% (second compound 1 µM, first compound 0.1 µM); 8.01% (second compound 1 µM, first compound 0.316 µM); 6.8% (second compound 1 µM, first compound 1 µM); 6.75% (second compound 1 µM, first compound 3.16 µM); 5.01% (second compound 1 µM, first compound 10 µM).
Consider `CC(=O)OC12COC1CC(O)C1(C)C(=O)C(O)C3=C(C)C(OC(=O)C(O)C(NC(=O)OC(C)(C)C)c4ccccc4)CC(O)(C(OC(=O)c4ccccc4)C21)C3(C)C` (configuration not stated), for which the viability, T/C was 104% [middle of 4 runs] (compound 0.0316 µM); 65.8% [middle of 4 runs] (compound 0.316 µM); 50.8% [middle of 4 runs] (compound 1 µM); 42.5% [middle of 4 runs] (compound 3.16 µM); 43.9% [middle of 4 runs] (compound 10 µM).
